Values quoted from earlier work as cited in PubChem BioAssay AID1259409 (Chemical Carcinogenesis Research Information System (CCRIS), 2018).

Test system: rodent chemically induced tumor inhibition, incidence and multiplicity
Experiment: CCRIS tumor inhibitor studies

Structure (SMILES): CC(=O)Oc1ccccc1C(=O)O
- tumour outcome (control, treated, inhibition, significance) (Carcinogen: AZOXYMETHANE, 25843-45-2, Dose [Inhibitor]: 0, 250 PPM IN DIET FOR 34 WK BEGINNING 1 WK POST LAST CARCINOGEN DOSE (STUDY DURATION: 49 WK), Route [Inhibitor]: ORAL, Species: RAT, Strain/Sex: F344/MALE, Target Tissue: Type of Lesion: COLON: ADENOCARCINOMA, Dose [Carcinogen]: 12 MG/KG BW IN 0.9% SALINE TWICE, Promoter: CHOLIC ACID, 81-25-4): 26%, 19%, 27%, not significant
- tumour outcome (control, treated, inhibition, significance) (Carcinogen: AZOXYMETHANE, 25843-45-2, Dose [Inhibitor]: 0, 250 PPM IN DIET FOR 34 WK BEGINNING 1 WK POST LAST CARCINOGEN DOSE (STUDY DURATION: 49 WK), Route [Inhibitor]: ORAL, Species: RAT, Strain/Sex: F344/MALE, Target Tissue: Type of Lesion: COLON: ADENOMA, Dose [Carcinogen]: 12 MG/KG BW IN 0.9% SALINE TWICE, Promoter: CHOLIC ACID, 81-25-4): 81%, 77%, 5%, not significant
- tumour outcome (control, treated, inhibition, significance) (Carcinogen: AZOXYMETHANE, 25843-45-2, Dose [Inhibitor]: 0, 250 PPM IN DIET FOR 34 WK BEGINNING 1 WK POST LAST CARCINOGEN DOSE (STUDY DURATION: 49 WK), Route [Inhibitor]: ORAL, Species: RAT, Strain/Sex: F344/MALE, Target Tissue: Type of Lesion: SMALL INTESTINE: ADENOCARCINOMA, Dose [Carcinogen]: 12 MG/KG BW IN 0.9% SALINE TWICE, Promoter: CHOLIC ACID, 81-25-4): 23%, 23%, 0%, not significant
- tumour outcome (control, treated, inhibition, significance) (Carcinogen: AZOXYMETHANE, 25843-45-2, Dose [Inhibitor]: 0, 250 PPM IN DIET FOR 34 WK BEGINNING 1 WK POST LAST CARCINOGEN DOSE (STUDY DURATION: 49 WK), Route [Inhibitor]: ORAL, Species: RAT, Strain/Sex: F344/MALE, Target Tissue: Type of Lesion: SMALL INTESTINE: ADENOMA, Dose [Carcinogen]: 12 MG/KG BW IN 0.9% SALINE TWICE, Promoter: CHOLIC ACID, 81-25-4): 17%, 23%, -35%, not significant
- tumour outcome (control, treated, inhibition, significance) (Carcinogen: AZOXYMETHANE, 25843-45-2, Dose [Inhibitor]: 0, 400 PPM IN DIET BEGINNING 2 WK PRIOR TO CARCINOGEN TREATMENT AND CONTINUING FOR 52 WK (STUDY DURATION: 54 WK), Route [Inhibitor]: ORAL, Species: RAT, Strain/Sex: F344/MALE, Target Tissue: Type of Lesion: COLON: ADENOCARCINOMA, Dose [Carcinogen]: 15 MG/KG BW 1/WK FOR 2 WK, Promoter: NONE USED): 78%, 47%, 40%, p<0.01
- tumour outcome (control, treated, inhibition, significance) (Carcinogen: DIMETHYLHYDRAZINE HYDROCHLORIDE, 306-37-6, Dose [Inhibitor]: 0, 5 MG/KG 1/D 5D/WK BY GAVAGE AND SAME DOSE IN DIET 2 D/WK FOR 18 WK (STUDY DURATION: 18 WK), Route [Inhibitor]: GAVAGE, ORAL, Species: RAT, Strain/Sex: WISTAR/MALE, Target Tissue: Type of Lesion: COLON: TUMOR, Dose [Carcinogen]: 30 MG/KG/WK FOR 18 WK, Promoter: NONE USED): 100%, 100%, 0%, not significant
- tumour outcome (control, treated, inhibition, significance) (Carcinogen: DIMETHYLHYDRAZINE HYDROCHLORIDE, 306-37-6, Dose [Inhibitor]: 0, 30 MG/KG 1/D 5 D/WK BY GAVAGE AND THE SAME DOSE IN DIET 2 D/WK FOR 18 WK (STUDY DURATION: 18 WK), Route [Inhibitor]: GAVAGE, ORAL, Species: RAT, Strain/Sex: WISTAR/MALE, Target Tissue: Type of Lesion: COLON: TUMOR, Dose [Carcinogen]: 30 MG/KG/WK FOR 18 WK, Promoter: NONE USED): 100%, 50%, 50%, p<0.03
- tumour outcome (control, treated, inhibition, significance) (Carcinogen: DIMETHYLHYDRAZINE HYDROCHLORIDE, 306-37-6, Dose [Inhibitor]: 0, 60 MG/KG 1/D 5 D/WK BY GAVAGE AND THE SAME DOSE IN DIET 2 D/WK FOR 18 WK (STUDY DURATION: 18 WK), Route [Inhibitor]: GAVAGE, ORAL, Species: RAT, Strain/Sex: WISTAR/MALE, Target Tissue: Type of Lesion: COLON: TUMOR, Dose [Carcinogen]: 30 MG/KG/WK FOR 18 WK, Promoter: NONE USED): 100%, 25%, 75%, p<0.01
- tumour outcome (control, treated, inhibition, significance) (Carcinogen: N-BUTYL-(4-HYDROXYBUTYL)NITROSAMINE, 3817-11-6, Dose [Inhibitor]: 0, 1 G/KG IN DIET FROM WK 1 THROUGH WK 20 OF STUDY, Route [Inhibitor]: ORAL, Species: RAT, Strain/Sex: WISTAR/MALE, Target Tissue: Type of Lesion: BLADDER: TUMOR, Dose [Carcinogen]: 0.05% IN DRINKING WATER FROM WK 2 THROUGH WK 10 OF STUDY (STUDY DURATION: 32 WK), Promoter: NONE USED): 8/29 (28%), 1/29 (3%), 89%, p<0.05
- tumour outcome (control, treated, inhibition, significance) (Carcinogen: N-BUTYL-N-(4-HYDROXYBUTYL)NITROSAMINE, 3817-11-6, Dose [Inhibitor]: 0, 400 MG/KG DIET FOR 24 WK BEGINNING 1 WK PRIOR TO CARCINOGEN TREATMENT (STUDY DURATION: 24 WK), Route [Inhibitor]: ORAL, Species: MOUSE, Strain/Sex: BDF/MALE, Target Tissue: Type of Lesion: URINARY BLADDER: TRANSITIONAL CELL CARCINOMA, Dose [Carcinogen]: 7.5 MG 1/WK FOR 8 WK, Promoter: NONE USED): 22/75 (29%), 21/74 (28%), 3%, not significant
- tumour outcome (control, treated, inhibition, significance) (Carcinogen: N-BUTYL-N-(4-HYDROXYBUTYL)NITROSAMINE, 3817-11-6, Dose [Inhibitor]: 0, 800 MG/KG DIET FOR 24 WK BEGINNING 1 WK PRIOR TO CARCINOGEN TREATMENT (STUDY DURATION: 24 WK), Route [Inhibitor]: ORAL, Species: MOUSE, Strain/Sex: BDF/MALE, Target Tissue: Type of Lesion: URINARY BLADDER: TRANSITIONAL CELL CARCINOMA, Dose [Carcinogen]: 7.5 MG 1/WK FOR 8 WK, Promoter: NONE USED): 22/75 (29%), 22/73 (30%), -3%, not significant
- tumour outcome (control, treated, inhibition, significance) (Carcinogen: N-METHYL-N'-NITRO-N-NITROSOGUANIDINE, 70-25-7, Dose [Inhibitor]: FOLLOWING 8 WK CARCINOGEN/NACL REGIMEN, RATS FED DIETS SUPPLEMENTED WITH 1% ASPIRIN FOR 32 WK (STUDY DURATION: 40 WK), Route [Inhibitor]: ORAL, Species: RAT, Strain/Sex: WISTAR/MALE, Target Tissue: Type of Lesion: DUODENUM: ADENOCARCINOMA, Dose [Carcinogen]: 100 MG/L IN DRINKING WATER FOR 8 WK, AND SIMULTANEOUSLY FED DIET SUPPLEMENTED WITH 10% NACL, Promoter: SODIUM CHLORIDE, 7647-14-5): 3/39 (8%), 1/20 (5%), 38%, not significant
- tumour outcome (control, treated, inhibition, significance) (Carcinogen: N-METHYL-N'-NITRO-N-NITROSOGUANIDINE, 70-25-7, Dose [Inhibitor]: FOLLOWING 8 WK CARCINOGEN/NACL REGIMEN, RATS FED DIETS SUPPLEMENTED WITH 1% ASPIRIN FOR 32 WK (STUDY DURATION: 40 WK), Route [Inhibitor]: ORAL, Species: RAT, Strain/Sex: WISTAR/MALE, Target Tissue: Type of Lesion: GLANDULAR STOMACH: ADENOCARCINOMA, Dose [Carcinogen]: 100 MG/L IN DRINKING WATER FOR 8 WK, AND SIMULTANEOUSLY FED DIET SUPPLEMENTED WITH 10% NACL, Promoter: SODIUM CHLORIDE, 7647-14-5): 3/39 (8%), 0/20 (0%), 100% not significant
- tumour outcome (control, treated, inhibition, significance) (Carcinogen: N-METHYL-N'-NITRO-N-NITROSOGUANIDINE, 70-25-7, Dose [Inhibitor]: FOLLOWING 8 WK CARCINOGEN/NACL REGIMEN, RATS FED DIETS SUPPLEMENTED WITH 1% ASPIRIN FOR 32 WK (STUDY DURATION: 40 WK), Route [Inhibitor]: ORAL, Species: RAT, Strain/Sex: WISTAR/MALE, Target Tissue: Type of Lesion: GLANDULAR STOMACH: PRENEOPLASTIC HYPERPLASIA, Dose [Carcinogen]: 100 MG/L IN DRINKING WATER FOR 8 WK, AND SIMULTANEOUSLY FED DIET SUPPLEMENTED WITH 10% NACL, Promoter: SODIUM CHLORIDE, 7647-14-5): 5/39 (13%), 2/20 (10%), 23%, not significant
- tumour outcome (control, treated, inhibition, significance) (Carcinogen: N-NITROSOBIS(2-OXOPROPYL)AMINE, 60599-38-4, Dose [Inhibitor]: 0, 1% IN DIET FOR 27 WK BEGINNING POST LAST CARCINOGEN DOSE (STUDY DURATION: 32 WK), Route [Inhibitor]: ORAL, Species: HAMSTER, Strain/Sex: SYRIAN/FEMALE, Target Tissue: Type of Lesion: PANCREAS: ADENOCARCINOMA, Dose [Carcinogen]: 10 MG/KG 1/WK FOR 5 WK, Promoter: NONE USED): 20/28 (71%), 10/19 (53%), 25%, not calculated
- tumour outcome (control, treated, inhibition, significance) (Carcinogen: N-NITROSODIETHYLAMINE, 55-18-5, 2-ACETYLAMINOFLUORENE, 53-93-6, CARBON TETRACHLORIDE, 56-23-5, Carcinogen: N-NITROSODIETHYLAMINE, 55-18-5, 2-ACETYLAMINOFLUORENE, 53-93-6, CARBON TETRACHLORIDE, 56-23-5, Dose [Inhibitor]: 0, 0.75% IN DIET FOR 29 WK ADMINISTERED TO RATS BEARING PERSISTENT NODULES FOLLOWING CARCINOGEN TREATMENT (STUDY DURATIO, Route [Inhibitor]: ORAL, Species: RAT, Strain/Sex: F344/MALE, Target Tissue: Type of Lesion: LIVER: HEPATOCELLULAR CARCINOMA, Dose [Carcinogen]: 200 MG/KG BW DEN ONCE, 0.002% 2-AAF IN DIET FOR 2 WK, 1 MG/KG BW CCL4 MIDWAY IN 2-AAF TREATMENT, Dose [Carcinogen]: 200 MG/KG BW DEN ONCE, 0.002% 2-AAF IN DIET FOR 2 WK, 1 MG/KG BW CCL4 MIDWAY IN 2-AAF TREATMENT, Promoter: NONE USED): 7/8 (88%), 5/13 (38%), 57%, not significant
- tumour outcome (control, treated, inhibition, significance) (Carcinogen: N-NITROSODIETHYLAMINE, 55-18-5, 2-ACETYLAMINOFLUORENE, 53-93-6, CARBON TETRACHLORIDE, 56-23-5, Carcinogen: N-NITROSODIETHYLAMINE, 55-18-5, 2-ACETYLAMINOFLUORENE, 53-93-6, CARBON TETRACHLORIDE, 56-23-5, Dose [Inhibitor]: 0, 0.75% IN DIET FOR 29 WK ADMINISTERED TO RATS BEARING PERSISTENT NODULES FOLLOWING CARCINOGEN TREATMENT (STUDY DURATIO, Route [Inhibitor]: ORAL, Species: RAT, Strain/Sex: F344/MALE, Target Tissue: Type of Lesion: LIVER: HEPATOCELLULAR CARCINOMA, Dose [Carcinogen]: 200 MG/KG BW DEN ONCE, 0.002% 2-AAF IN DIET FOR 2 WK, 1 ML/KG BW CCL4 MIDWAY IN 2-AAF TREATMENT, Dose [Carcinogen]: 200 MG/KG BW DEN ONCE, 0.002% 2-AAF IN DIET FOR 2 WK, 1 ML/KG BW CCL4 MIDWAY IN 2-AAF TREATMENT, Promoter: PHENOBARBITAL, 50-06-6): 12/12 (100%), 12/14 (86%), 14%, not significant
- tumour outcome (control, treated, inhibition, significance) (Carcinogen: N-[4-(5-NITRO-2-FURYL)-2-THIAZOLYL]FORMAMIDE, 24554-26-5, Dose [Inhibitor]: 0.5% IN DIET FOR 2 D PRIOR TO AND FOR 7 D AFTER CARCINOGEN ADMINISTRATION (13 WK TOTAL) FOLLOWED BY 56 WK ON CONTROL DIE, Route [Inhibitor]: ORAL, Species: RAT, Strain/Sex: FISCHER/MALE, Target Tissue: Type of Lesion: URINARY BLADDER: CARCINOMA, Dose [Carcinogen]: 0.2% IN DIET SIMULTANEOUSLY WITH INHIBITOR FOR 12 WK, Promoter: NONE USED): 18/21 (86%), 10/27 (37%), 57%, p<0.001
